{"source": "patent US9573907B2", "about": "“2, 4-pyrimidine derivatives and use thereof” (SNU R&DB FOUNDATION, priority 2009, dated 2017)", "key": {"bone marrow-derived DCs": {"system": "bone marrow-derived DCs", "assay": "DC maturation assay (secreted TNFα)", "assay_type": "cell-based, mice", "details": "AIMP1−/− splenocytes pretreated 10 μM, 24 h; compared to NC1", "experimental": "FIGS. 1 to 9 represent suppression of cell surface gp96 by GPM1 reduces DC maturation and B220^+ population in gp96tm transgenic mice. (FIG. 1) Chemical structure of GPM1 (Formula 2) and negative control (NC1, Formula 16) used in this study. (FIG. 2) The dose-dependent effect of GPM1 or NC1 on the AIMP1-gp96 interaction using ELISA method as described. The indicated concentrations of the two compounds and biotin-conjugated murine gp96 were added to AIMP1 coated on the surface of microtiter wells, and gp96 bound to AIMP1 was detected with strepavidin-conjugated peroxidase. (FIG. 3) The binding of GPM1 to gp96 was examined by surface plasmon resonance (SPR). GPM1 at the indicated concentrations was injected to immobilized gp96 and the binding was measured using Biacore 3000. The response data were processed using data from a reference surface and buffer injections. Each concentration was tested in triplicate. (FIG. 4) RAW24.7 cells were treated with 10 μM GPM1 for 24 h. Cell lysates were immunoprecipitated with control IgG or anti-gp96 antibody and the immunoprecipitated proteins were immunoblotted with anti-KDELR1, antiAIMP1 and gp96 antibodies. WCL means whole cell lysate. […] TNFα secreted from BMDCs was quantified by ELISA. […]"}, "gp96tm transgenic mice": {"system": "gp96tm transgenic mice", "experimental": "Female gp96tm transgenic mice (Proc Natl Acad Sci USA. 2003 December 23; 100(26): 15824-15829) were bred and maintained at the animal center for pharmaceutical research, Seoul National University. We used age-matched, 12-26 weeks old mice in each experimental group. To suppress cell surface gp96 we used GPM1 compound. Dexamethasone and GPM1 were dissolved in 5% DMSO in phosphate-buffered saline (PBS) and control vehicle was 5% DMSO in PBS. Compounds were administered i.p. every 24 h for 2 months (30 mg/kg/day). Three groups of each 9 mice were examined. All procedures were conducted in accordance with the Guide for the Care and Use of Laboratory Animals, published by the Korean National Institute of Health.\nSpleen and lymph node cell suspensions were prepared by grindling tissue through sterile mesh and erythrocytes were lysed with RBC lysis buffer (eBioscience, CA). For surface staining, antibodies were fluoresceinisothiocyanate (FITC)-, phycoerythrin (PE)-, PerCP-, or APC-conjugated. Antibodies used were CD4 (RM4-5, H129.12), CD8 (53-6,7), B220 (RA3-6B2), CD11b (M1/70), CD11c (HL3), CD44 (IM7), CD62L (MEL-14), CD69 (H1.2F3), CD25 (PC61.5), IgM (11/41), IgD (11-26C.2a) (BD Pharmingen, CA), MHC class II (M5/114.15.2), Foxp3 (FJK-16s) (eBioscience, CA), and gp96 (Santacruz, Calif.). After staining, cells were washed and analyzed on a FACS can flow cytometer using CellQuest software (BD Bioscience, Mountain View, Calif.).\nKidney tissue sections of gp96tm transgenic mice were fixed in 10% formaldehyde in PBS and dehydrated using an alcohol gradient. After paraffin infiltration, the tissues were sectioned using a microtome, stained with hematoxylin and eosin (H&E) and analyzed by light microscopy. For immunofluorescent staining, kidneys were sectioned with a cryostat. These cryosections were blocked with normal goat serum, stained with FITC-conjugated goat anti-mouse Ig (BD pharmingen, CA), and then observed by fluorescent microscopy.\nThe present inventors compared the effect of GPM1 with phosphate-buffered saline containing 5% DMSO and dexamethasone (Dex), an immunosuppressant of glucocorticoid family as negative and positive control, respectively. Each group consisted of age-matched nine female mice. […] After 2 month, the present inventors isolated MHC class II^+ splenocytes and lymph nodes from vehicle-, Dex-, and GPM1-treated mice and determined the portion of gp96^+ cells by flow cytometry."}, "[1]": {"details": "spleen and lymph nodes, 30 mg/kg"}}, "data": [{"molecule": "COC(=O)[C@@H](Oc1nc(OC)cc(OC)n1)C(C)C", "note": "[GPM1, (S)-methyl 2-(4,6-dimethoxypyrimidin-2-yloxy)-3-methylbutanoate]", "values": [{"measurement": "amount of secreted TNF-α", "setting": "bone marrow-derived DCs", "value": "significantly reduced"}, {"measurement": "glomerulonephritis phenotypes and glomerular immunoglobulin deposition", "setting": "gp96tm transgenic mice; kidney sections", "value": "lessened"}, {"measurement": "total cell count (spleen)", "setting": "gp96tm transgenic mice; mouse, in vivo, 30 mg/kg/day", "value": "4.56 ± 1.44 × 10^6"}, {"measurement": "adverse effects / death during administration", "setting": "gp96tm transgenic mice; mouse, in vivo, ip, 30 mg/kg", "value": "did not give apparent adverse effects"}, {"measurement": "DNA-specific autoantibody levels", "setting": "gp96tm transgenic mice; serum", "value": "reduced"}, {"measurement": "Nuclear antigen-specific autoantibody levels", "setting": "gp96tm transgenic mice; serum", "value": "reduced"}, {"measurement": "total serum levels of IgG1, IgG2b, IgG3, IgM, and IgA", "setting": "gp96tm transgenic mice; serum, ELISA", "value": "reduced"}, {"measurement": "CD4+CD25+Foxp3+ regulatory T cell population", "setting": "gp96tm transgenic mice; spleen and lymph nodes", "value": "increase"}, {"measurement": "population of CD4+ memory cells and activated CD4+ T cells", "setting": "gp96tm transgenic mice; spleen and lymph nodes", "value": "reduction"}, {"measurement": "B220+ population", "setting": "gp96tm transgenic mice; [1]", "value": "reduced"}, {"measurement": "MHC class II+ population", "setting": "gp96tm transgenic mice; [1]", "value": "reduced"}, {"measurement": "mature B cell population (B220+IgM+IgD+)", "setting": "gp96tm transgenic mice; splenocytes", "value": "decreased"}, {"measurement": "ICOSL levels in CD11b+CD11c+ myeloid DC", "setting": "gp96tm transgenic mice; splenocytes, 30 mg/kg", "value": "significantly reduced"}, {"measurement": "ICOSL levels in CD11b+CD11c− macrophages", "setting": "gp96tm transgenic mice; splenocytes, 30 mg/kg", "value": "suppressed"}, {"measurement": "ICOSL levels in CD11b−CD11c+ lymphoid DCs", "setting": "gp96tm transgenic mice; splenocytes, 30 mg/kg", "value": "little difference"}, {"measurement": "percentages of gp96+ MHC class II+ cells", "setting": "gp96tm transgenic mice; splenocytes, after 2 month, 30 mg/kg", "value": "~41", "unit": "%"}, {"measurement": "Proteinuria", "setting": "gp96tm transgenic mice; urine", "value": "reduced"}]}]}
